# System: Streptococcus pyogenes (ATCC# 97-03 14289)
# Assay: Anti-microbial screen (percent inhibition of growth, OD 570 nm)
# Assay type: cell-based
# Conditions: Spy4H: Streptococcus pyogenes, read at 4 hours, OD 570 nm; Conc 0.1776 mg ml
# Description: Streptococcus pyogenes (ATCC# 97-03 14289) was grown in Todd Hewitt Broth (THB) (Difco Laboratories #0492-17-6) overnight until reaching an optical density of (OD=0.636@570 nm) by reading 0.1 ml in a 96 well microtiter plate in a Molecular Devices Thermomax. This preparation was kept frozen as stocks in 30% v/v glycerol in 1.5 ml aliquots at […] until use. Prior to experiments, 6 ml aliquots were thawed and diluted into 50 ml 2×THB. 60 ul of this dilution was added to 92 wells of microtiter plate. To three wells THB (200 ul) was added to serve as a blank and a sterility control. Test compounds in DMSO and appropriate concentrations of DMSO were added to Growth/Solvent Controls at 0 time. Plates were read at 0 time at 570 nm in the Molecular Devices plate reader to obtain compounds correction factors for insoluble or colored compounds. Plates were read again at 4 hours.
# Percent inhibition is calculated with the following formula:
# Color correct=O.D. 0 hr - Blank 0 hr)-(Solvent Control Ohr - Blank 0 hr) [formula]
row,SMILES,inhibition of growth at 177.6 µg/mL
1,Cc1ccc(S/C(=N\c2ccc(F)c(Cl)c2)N(Cc2cccc(O)c2)CC2CCCCC2)c(C)c1 [Cmpd 1254],62.1%
2,COc1cccc(CCN(Cc2ccc(O)cc2)/C(=N/c2ccc(Cl)c([N+](=O)[O-])c2)Sc2ccccc2)c1 [Cmpd 903],95.7%
3,Cc1ccc(S/C(=N/c2ccc(Cl)c(C(F)(F)F)c2)N(Cc2ccc(O)cc2)CC(C)C)cc1 [Cmpd 273],64.6%
4,Cc1cccc(S/C(=N\c2ccccc2[N+](=O)[O-])N(CCc2ccc(Cl)cc2)Cc2cccc(O)c2)c1 [Cmpd 706],63.6%
5,Cc1ccc(S/C(=N\c2ccc(Cl)c([N+](=O)[O-])c2)N(Cc2ccc(O)cc2)Cc2cccc(Cl)c2)cc1 [Cmpd 183],64.8%
6,COc1cccc(CN(Cc2cccc(O)c2)/C(=N\c2ccc(Cl)c(C(F)(F)F)c2)Sc2cccc(OC)c2)c1 [Cmpd 353],59.1%
7,COc1cccc(S/C(=N\c2cc(Cl)cc(Cl)c2)N(Cc2ccc(O)cc2)Cc2ccc(Cl)c(Cl)c2)c1 [Cmpd 53],70.2%
8,Cc1ccc(CN(Cc2cccc(O)c2)/C(=N/c2cc(Cl)cc(Cl)c2)Sc2cccc(C)c2)cc1 [Cmpd 453],60.5%
9,Cc1ccc(CN(Cc2cccc(O)c2)/C(=N\c2ccc(Cl)c(C(F)(F)F)c2)Sc2cccc(C)c2)cc1 [Cmpd 473],57.6%
10,Cc1ccc(CN(Cc2cccc(O)c2)/C(=N/c2ccc(C(F)(F)F)cc2)Sc2ccc(C)cc2)cc1 [Cmpd 407],71.7%
11,Cc1ccc(CN(Cc2ccc(O)cc2)/C(=N/c2ccccc2[N+](=O)[O-])Sc2ccc(C)cc2C)cc1 [Cmpd 26],58.1%
12,COCCN(Cc1cccc(O)c1)/C(=N\c1cccc(F)c1)Sc1ccc(C)cc1C [Cmpd 83],70.9%
13,Cc1ccc(CN(Cc2ccc(O)cc2)/C(=N\c2ccc(Cl)c(C(F)(F)F)c2)Sc2ccc(C)cc2C)cc1 [Cmpd 33],57.8%
14,COc1cccc(S/C(=N\c2cccc(C(F)(F)F)c2)N(CCc2ccc(F)cc2)Cc2cccc(O)c2)c1 [Cmpd 926],96%
15,Cc1cccc(S/C(=N/Cc2ccc(F)cc2)N(Cc2cccc(O)c2)CC(C)C)c1 [Cmpd 524],89.5%
16,COc1cccc(S/C(=N/c2ccc(Cl)c(C(F)(F)F)c2)N(Cc2ccc(C)cc2)Cc2ccc(O)cc2)c1 [Cmpd 153],70.6%
17,Cc1ccc(CN(Cc2cccc(O)c2)/C(=N/c2ccccc2[N+](=O)[O-])Sc2cccc(C)c2)cc1 [Cmpd 466],69.7%
18,Cc1ccc(CN(Cc2cccc(O)c2)/C(=N\c2ccc(Cl)c(C(F)(F)F)c2)Sc2ccc(C)cc2C)cc1 [Cmpd 233],60.5%
19,Cc1cccc(S/C(=N/c2ccc(Cl)c(C(F)(F)F)c2)N(Cc2ccccc2)Cc2cccc(O)c2)c1 [Cmpd 1153],62.7%
20,Cc1cccc(S/C(=N\c2ccc(F)c(F)c2)N(Cc2ccccc2)Cc2cccc(O)c2)c1 [Cmpd 1156],59.5%
21,COc1cccc(S/C(=N\c2cc(Cl)cc(Cl)c2)N(CCc2ccc(Cl)cc2)Cc2ccc(O)cc2)c1 [Cmpd 373],75%
22,COc1cccc(CN(Cc2ccc(O)cc2)/C(=N/c2cc(Cl)cc(Cl)c2)Sc2cccc(OC)c2)c1 [Cmpd 773],68.4%
23,COc1cccc(S/C(=N/c2ccc(C(F)(F)F)cc2)N(Cc2ccc(C)cc2)Cc2ccc(O)cc2)c1 [Cmpd 127],61.5%
24,CCc1cccc(/N=C(/Sc2ccc(C)cc2C)N(CCOC)Cc2cccc(O)c2)c1 [Cmpd 98],69.9%
25,Cc1ccc(S/C(=N/c2ccc(C(F)(F)F)cc2)N(Cc2ccc(O)cc2)CC(C)C)cc1 [Cmpd 247],60.3%

# Same assay, conditions: Streptococcus pyogenes; Assay Spy4H; Conc 0.1776 mg ml; plates read at 570 nm at 0 time and at 4 hours
row,SMILES,inhibition of growth at 177.6 µg/mL
1,Oc1cccc(CN(Cc2ccc(Cl)c(Cl)c2)/C(=N/c2cccc(C(F)(F)F)c2)Sc2ccccc2)c1 [Cmpd 846],49.3%
2,Cc1ccc(S/C(=N/c2ccc(Cl)c(C(F)(F)F)c2)N(CCc2ccc(Cl)cc2)Cc2cccc(O)c2)c(C)c1 [Cmpd 313],50.4%
3,Cc1ccc(S/C(=N\c2ccc(F)cc2F)N(Cc2cccc(O)c2)CC2CCCCC2)c(C)c1 [Cmpd 1245],53.8%
4,COc1cccc(S/C(=N\c2ccc(Cl)c([N+](=O)[O-])c2)N(CCc2ccc(Cl)cc2)Cc2ccc(O)cc2)c1 [Cmpd 383],56.7%
5,Cc1ccc(S/C(=N/c2ccc(Cl)c([N+](=O)[O-])c2)N(Cc2ccccc2)Cc2ccc(O)cc2)c(C)c1 [Cmpd 503],57.3%
6,COCCN(Cc1ccc(O)cc1)/C(=N\c1ccc(Cl)c([N+](=O)[O-])c1)Sc1ccc(C)cc1 [Cmpd 663],54.8%
7,Cc1ccc(CN(Cc2cccc(O)c2)/C(=N/c2ccc(F)c(Cl)c2)Sc2ccc(C)cc2)cc1 [Cmpd 414],49.1%
8,CCOc1ccc(/N=C(/Sc2ccc(C)cc2C)N(Cc2cccc(O)c2)CC2CCCCC2)cc1 [Cmpd 1261],51.9%
9,Cc1cccc(C/N=C(/Sc2cccc(C)c2)N(Cc2cccc(O)c2)CC(C)C)c1 [Cmpd 522],54.6%
10,COc1cccc(S/C(=N/c2ccc(Cl)c(C(F)(F)F)c2)N(CCc2ccc(Cl)cc2)Cc2ccc(O)cc2)c1 [Cmpd 393],54.5%
11,Cc1ccc(CN(Cc2ccc(O)cc2)/C(=N/c2ccc(F)c(F)c2)Sc2ccc(C)cc2C)cc1 [Cmpd 36],56.8%
12,Cc1ccc(S/C(=N/Cc2ccc(F)cc2)N(Cc2ccc(O)cc2)CC(C)C)cc1 [Cmpd 244],51.6%
13,Cc1ccc(CN(Cc2cccc(O)c2)/C(=N/Cc2cccc(C)c2)Sc2ccc(C)cc2C)cc1 [Cmpd 202],51.9%
14,COCCN(Cc1ccc(O)cc1)/C(=N\c1ccc(F)c(F)c1)Sc1ccc(C)cc1C [Cmpd 1076],55.1%
15,Oc1cccc(CN(Cc2ccc(Cl)c(Cl)c2)/C(=N/c2cccc(F)c2)Sc2ccccc2)c1 [Cmpd 843],53.4%
16,Cc1cccc(C/N=C(\Sc2ccc(C)cc2C)N(CCc2ccc(Cl)cc2)Cc2cccc(O)c2)c1 [Cmpd 282],49.8%
17,Cc1ccc(S/C(=N\Cc2ccc(F)cc2)N(Cc2cccc(O)c2)CC2CCCCC2)c(C)c1 [Cmpd 1244],53.8%
18,Cc1ccc(CN(Cc2cccc(O)c2)/C(=N/c2ccc(Cl)c([N+](=O)[O-])c2)Sc2ccc(C)cc2)cc1 [Cmpd 423],57.3%
19,Cc1cccc(S/C(=N/c2cc(Cl)cc(Cl)c2)N(Cc2cccc(O)c2)CC(C)C)c1 [Cmpd 533],52%
20,Cc1ccc(S/C(=N\c2ccccc2[N+](=O)[O-])N(Cc2ccc(O)cc2)Cc2cccc(Cl)c2)cc1 [Cmpd 186],56.5%
21,Cc1cccc(S/C(=N\c2ccc(Cl)c(C(F)(F)F)c2)N(CCc2ccc(Cl)cc2)Cc2ccc(O)cc2)c1 [Cmpd 1193],53.6%
22,Cc1ccc(CN(Cc2cccc(O)c2)/C(=N/Cc2ccc(F)cc2)Sc2cccc(C)c2)cc1 [Cmpd 444],56.6%
23,COc1cccc(CN(Cc2ccc(O)cc2)/C(=N/c2ccc(Cl)c([N+](=O)[O-])c2)Sc2cccc(OC)c2)c1 [Cmpd 783],54.5%
24,COc1cccc(CN(Cc2cccc(O)c2)/C(=N/c2ccc(Cl)c([N+](=O)[O-])c2)Sc2cccc(OC)c2)c1 [Cmpd 343],52.7%

# — patent US20040010036A1, “N,N, -Substituted s-Aryl-Isothioureas, N,N,N, -Substituted s-Aryl-Isothioureas and combinatorial libraries thereof” (priority 2002, published 2004)
